According to paper PMC11409059, “Substitution of Glu378 in EF-Tu disrupts binding to KKL-55” (microPublication Biology, 2024):
pKd: −log10 of the molar value.

Target: EF-Tu (6His-tagged EF-Tu, tufA) (Escherichia coli, UniProt P0CE47, E379A)
Test: biochemical

CCCn1nnnc1NC(=O)c1cccc(Cl)c1 [KKL-55]
pKd: 5.62
